Measured values reported in paper doi:10.1101/2025.08.06.669005v1 (bioRxiv, 2025).
Starred links: 1 amine or outer side, 2 acyl side, 3 side chain; linkers in the order of their positions; H or OH if unused. Positions of bridges follow the written chain, without caps; N, C: chain ends. Non-standard residues stand in square brackets, D forms with d. Residues, ends and D or L forms follow the SMILES beside them. Chains are numbered I, II in the order given. X1 = O=C(O)C[C@@H](C(=O)[*:2])N(c1ccc([N+](=O)[O-])c2nonc12)[*:1]; Nle = CCCC[C@H](N)C(=O)O; Aib = CC(C)(N)C(=O)O

Tests used:
HeLa cells [1] = test: Membrane perturbation assay; type: cell-based; conditions: PI 3.5 µM, 30 min, 37 °C, CLSM, n = 37–65 cells
PANC-1 cells [2] = test: Membrane perturbation assay; type: cell-based; conditions: PI 3.5 µM, 30 min, 37 °C, CLSM, n = 28–58 cells
sEVs = conditions: previous data; cited from earlier work
EVs = conditions: placed in cultured media without separation steps; cited from earlier work
cancer cells = test: sEV drug-loading system with a hydrophobic compound; type: cell-based; conditions: compound loaded onto sEVs; data not shown
ζ-potential measurement = type: physicochemical; conditions: non- and DiD-labeled MSC-sEVs; Zetasizer Nano ZS, 25 °C; n = 5
MSC-sEVs = test: sEV binding of 2 in solution in the presence of heparin; conditions: heparin 100 or 500 µg/mL; n = 3
[3] = system: sEV-mimicking liposomes (POPC:cholesterol:POPS = 75:15:10 mol%); test: Peptide binding to sEV-mimicking liposomes; conditions: ratio of Kd values for sEV-mimicking liposomes
HeLa cells [4] = test: Cellular uptake by CLSM; type: cell-based; conditions: 2 at 1 µM alone, 37 °C, more than 1 h
PANC-1 cells [5] = test: Cellular uptake by CLSM; type: cell-based; conditions: 2 at 1 µM alone, 37 °C, more than 1 h

Compound	ratio of the dead cells stained by PI (HeLa cells [1]) [%]	ratio of the dead cells stained by PI (PANC-1 cells [2]) [%]	other results
CO [MeOH]	96.5	97.3	
CCCC[C@H](NC(=O)[C@H](CCCCN)NC(=O)[C@H](CO)NC(=O)[C@H](CC(C)C)NC(=O)C(C)(C)NC(=O)[C@H](CC(=O)O)NC(=O)[C@@H](NC(=O)C(C)(C)NC(=O)[C@H](CCCCN)NC(=O)[C@H](CC(N)=O)NC(=O)[C@H](CC(C)C)NC(=O)[C@H](CCCC)NC(=O)[C@H](CCCCN)NC(=O)[C@H](CC(C)C)NC(=O)[C@H](CC(C)C)NC(=O)C(C)(C)NC(=O)[C@H](CCCCN)NC(=O)[C@H](CC(=O)O)Nc1ccc([N+](=O)[O-])c2nonc12)[C@@H](C)O)C(=O)NCC(=O)N[C@@H](CO)C(=O)NCC(=O)N[C@@H](CO)C(=O)N[C@@H](CCCCN)C(N)=O [Peptide 1] (HELM PEPTIDE1{[O=C(O)C[C@H](Nc1ccc([N+](=O)[O-])c2nonc12)C(=O)[*:2]].K.[Aib].L.L.K.[Nle].L.N.K.[Aib].T.D.[Aib].L.S.K.[Nle].G.S.G.S.K.[am]}$$$$V2.0)			amount of peptide bound at the plateau level (sEVs): 1,361 peptides/vesicle; time to selective binding to EVs (EVs): ≤ 5 min
CC[C@@]1(O)C(=O)OCc2c1cc1n(c2=O)Cc2cc3ccccc3nc2-1 [camptothecin]			performance of the sEV drug-loading system (cancer cells): did not work effectively
DKBLLKXLNKBTDBLSKX-GSGS-C-NH2 (disulfide) [2′]			change of ζ-potential of sEVs in the presence of the peptide (ζ-potential measurement): slight increase in ζ-potential
Heparin			fluorescence intensity of NBD of 2 in the presence of MSC-sEVs in solution (MSC-sEVs): did not influence
I: H-[X1]K[Aib]LLK[Nle]LNK[Aib]TD[Aib]LSK[Nle]GSGSC-NH2 / II: H-[X1]K[Aib]LLK[Nle]LNK[Aib]TD[Aib]LSK[Nle]GSGSC-NH2 (disulfide I:23-II:23) [Peptide 2]			affinity relative to that of 1 [3]: 15.7 fold; NBD signals in cells in the absence of DiD-MSC-sEVs (uptake of peptide alone) (HeLa cells [4]): negligible; NBD signals in cells in the absence of DiD-MSC-sEVs (uptake of peptide alone) (PANC-1 cells [5]): negligible
biotin-DKBLLKXLNKBTDBLSKX-GSGS-C-NH2 | biotin-DKBLLKXLNKBTDBLSKX-GSGS-C-NH2 (disulfide) [Peptide 8]	0.0	1.9	
biotin-IWIAQELRRIGDEFNZYYAZR-NH2 (sidechain bridge or staple) [Peptide 10]	4.5	7.1	
biotin-LSQETFZ’DLWKLLZEN-NH2 (sidechain bridge or staple) [Peptide 9]	6.5	3.3	
